Measurements published in PMC5520972 (Cancer chemotherapy and pharmacology, 2017).

Tests used:
[1] = Safety and tolerability, dose-limiting toxicities; assay type: in vivo, human; settings: for Dose-limiting toxicity, hyperbilirubinemia (number of patients): days 1–8
[2] = test system: HCC; assay: Response assessment; assay type: in vivo, human; settings: of 11 HCC patients; 3 based solely on symptomatic deterioration
[3] = test system: AAG and albumin; settings: bound to both AAG and albumin; cited from earlier work
[4] = cited from earlier work

With `CS(=O)(=O)c1ccc(C(=O)Nc2ccc(Cl)c(-c3ccccn3)c2)c(Cl)c1` [vismodegib] the “AEs grade 3 or 4 in severity” value ([1]; all cohorts) was 67.7%, the “Total patients who experienced DLTs of hyperbilirubinemia” value ([1]; all cohorts, 31 patients) was “three” and the “Patients who experienced at least one AE” value ([1]; all groups, 31 patients) was 96.8%. For the same compound, the “Adverse event frequency: abdominal pain” value ([1]; all patients) was 22.6%, the “Adverse event frequency: decreased appetite” value ([1]; all patients) was 22.6% and the “Adverse event frequency: dysgeusia” value ([1]; all patients) was 22.6%. The “Adverse event frequency: fatigue” value ([1]; all patients) was 67.7%, the “Adverse event frequency: muscle spasms” value ([1]; all patients) was 22.6% and the “Adverse event frequency: nausea” value ([1]; all patients) was 35.5%. The “Adverse event frequency: vomiting” value ([1]; all patients) was 22.6%, the “Serious AE: abdominal pain” value ([1]; all patients (2 patients)) was 6.5% and the “Serious AE: hyperbilirubinemia” value ([1]; all patients (2 patients)) was 6.5%. The “Serious AE: upper gastrointestinal hemorrhage” value ([1]; all patients (2 patients)) was 6.5%, the “Patients who experienced serious AEs” value ([1]; all patients (16 patients)) was 51.6% and the “AEs grade 3 or 4 in severity” value ([1]; control cohort) was 44.4%. The “AEs grade 3 or 4 in severity” value ([1]; mild cohort) was 75%, the “Patients who experienced serious AEs” value ([1]; mild cohort (4 patients)) was 50% and the “Adverse events leading to withdrawal of vismodegib: intracranial bleed” value ([1]; mild cohort n = 8) was 1 (intracranial bleed). For the same compound, the “Deaths due to progression of disease (number of patients)” value (shortened to “Deaths due to progression of disease”) ([1]; mild cohort n = 8) was 1, the “Dose-limiting toxicity, hyperbilirubinemia (number of patients)” value ([1]; mild cohort n = 8, oral 150 mg daily) was 0 and the “AEs grade 3 or 4 in severity” value ([1]; moderate cohort) was 87.5%. The “Patients who experienced serious AEs” value ([1]; moderate cohort (6 patients)) was 75%, the “Adverse events leading to withdrawal of vismodegib: GI bleeds” value ([1]; moderate cohort n = 8) was 2 and the “Adverse events leading to withdrawal of vismodegib: hyperbilirubinemia” value ([1]; moderate cohort n = 8) was 1. For the same compound, the “Deaths due to progression of disease” value ([1]; moderate cohort n = 8) was 3, the “Patients who experienced serious AEs” value ([1]; normal cohort (3 patients)) was 33.3% and the “Adverse events leading to withdrawal of vismodegib” value ([1]; normal cohort n = 9) was 0. For the same compound, the “Deaths due to progression of disease” value ([1]; normal cohort n = 9) was 0, the “Dose-limiting toxicity, hyperbilirubinemia (number of patients)” value ([1]; normal cohort n = 9, oral 150 mg daily) was 0 and the “AEs grade 3 or 4 in severity” value ([1]; severe cohort) was 66.7%. The “Patients who experienced serious AEs” value ([1]; severe cohort (3 patients)) was 50%, the “Adverse events leading to withdrawal of vismodegib: fatigue” value ([1]; severe cohort n = 6) was 1 and the “Adverse events leading to withdrawal of vismodegib: hyperbilirubinemia” value ([1]; severe cohort n = 6) was 2. The “Adverse events leading to withdrawal of vismodegib: hyponatremia” value ([1]; severe cohort n = 6) was 1, the “Adverse events leading to withdrawal of vismodegib: leukocytosis” value ([1]; severe cohort n = 6) was 1 and the “Deaths due to progression of disease” value ([1]; severe cohort n = 6) was 1. For the same compound, the “HCC patients with progressive disease” value [2] was “nine”, the “Percentage of dose excreted in urine over a 24-h interval” value (all patients, regardless of hepatic function, day 8) was under 1% and the “Renal clearance (CLR)” value (patients with hepatic impairment compared to normal hepatic function) was “lower”. The Plasma protein bound [3] was “greater than 98%”, the “Cmax interpatient coefficient of variation” value [4] was about 37.4% and the “PK variability explained by AAG levels” value [4] was over 70%.
